Consider eleven molecules from patent publication US20040024000A1, “Dihydropyrimidine derivatives as cysteine protease inhibitors” (priority 2003, published 2004).

Data set [1] addresses T1, r cathepsin K (Homo sapiens, UniProt P43235).
T1 sequence (P43235 115-329): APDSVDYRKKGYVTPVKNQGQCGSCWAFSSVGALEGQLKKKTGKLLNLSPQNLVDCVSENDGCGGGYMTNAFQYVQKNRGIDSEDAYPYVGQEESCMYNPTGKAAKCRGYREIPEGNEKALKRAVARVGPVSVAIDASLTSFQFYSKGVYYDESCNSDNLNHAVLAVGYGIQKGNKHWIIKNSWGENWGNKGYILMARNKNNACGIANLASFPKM
Put plainly: In vitro assay for cathepsin K inhibition. In kind it is biochemical. The conditions noted are these: substrate N-CBZ-Phe-Arg-AMC, pH 5.5, 10 min preincubation. The procedure: To a […] of enzyme-buffer mixture (enzyme: r cathepsin K, diluted to give approximate 30 F units/min, buffer: 100 mM sodium acetate, 5 mM EDTA, 20 mM L-cysteine, 0.01% Brij, pH 5.5) a 10 μl of inhibitor (dissolved in DMSO) was added. After 10 min of incubation at room temperature, a 20 μl of 2.7 mM substrate (N-CBZ-Phe-Arg-AMC, dissolved in DMSO) was added to initiate reaction. Reading is followed up for 10 min at the fluoroscan II plate reader (excitation at 380 nm emission at 460 nm).
(§1) A plot of percentage of inhibition vs inhibitor concentration is obtained, and IC50 is determined using a linear regression calculations (concentration of inhibitor which will give 50% inhibition).

In data set [2] the target is r rat cathepsin B (Rattus norvegicus, UniProt P00787). Put plainly: In vitro assay for cathepsin B inhibition. The settings on record: substrate N-CBZ-Phe-Arg-AMC, pH 5.1, 10 min preincubation. In kind it is biochemical. On the procedure:
The compounds of formula I were tested for inhibition of cathepsin B using the known method (A. J. Barret et al., Biochem. J. 1982, 201, 189-198). To a 170 μl of enzyme-buffer mixture (enzyme: r rat cathepsin B, diluted to give approximate 10 F units/min, buffer: 56 mM sodium acetate, 1.124 mM EDTA, 10 mM DTT, pH 5.1) a 10 μl of inhibitor (dissolved in DMSO) was added. After 10 min of incubation at room temperature, a 20 μl of 5 mM substrate (N-CBZ-Phe-Arg-AMC, dissolved in DMSO) was added to initiate reaction. Reading is followed up for 10 min at the fluoroscan reader (excitation at 380 nm emission at 460 nm).
as §1

The target of data set [3] is r rat cathepsin L (Rattus norvegicus, UniProt P07154). Kind of data set: In vitro assay for cathepsin L inhibition. In kind it is biochemical. The conditions noted are these: substrate N-CBZ-Phe-Arg-AMC, pH 5.0, 10 min preincubation. On the procedure:
After 10 min of incubation at room temperature, a 20 μl of 1 mM substrate (N-CBZ-Phe-Arg-AMC, dissolved in DMSO) was added to initiate reaction. Reading is followed up for 10 min at the fluoroscan reader (excitation at 380 nm emission at 460 nm).
as §1

In data set [4] the target is r cathepsin S (Homo sapiens, UniProt P25774). Kind of data set: In vitro assay for cathepsin S inhibition. The conditions noted are these: substrate N-CBZ-Val-Val-Arg-AMC, pH 6.5, 10 min preincubation. In kind it is biochemical. On the procedure: To a […] of enzyme-buffer mixture (enzyme: r cathepsin S, diluted to give approximate 30 F units/min, buffer: 100 mM sodium phosphate, 1 mM EDTA, 5 mM DTT, 0.01% Brij, pH 6.5) a 10 μl of inhibitor (dissolved in DMSO) was added. After 10 min of incubation at room temperature a […] of 1.2 mM substrate (N-CBZ-Val-Val-Arg-AMC, dissolved in DMSO) was added to initiate reaction. Reading is followed up for 10 min at the fluoroscan 11 plate reader (excitation at 380 nm emission at 460 nm).
Sequence of r cathepsin S (P25774 115-331): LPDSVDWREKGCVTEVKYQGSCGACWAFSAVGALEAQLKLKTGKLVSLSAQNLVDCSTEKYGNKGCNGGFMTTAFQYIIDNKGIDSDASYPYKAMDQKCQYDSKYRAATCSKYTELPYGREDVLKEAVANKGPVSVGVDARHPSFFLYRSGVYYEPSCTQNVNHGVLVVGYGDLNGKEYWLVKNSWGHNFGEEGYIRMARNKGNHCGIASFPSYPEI
as §1

Data set [5] in a line: Pharmacokinetics in mice after single oral dose. In kind it is in vivo. More on the design: Cl/F: unit not given here. The settings on record: single oral dose of 5 mg/kg; for AUC / Cmax / half-life / Vd/F: mouse, in vivo; for Vd/F: read-out: Vz/F. On the procedure:
Selected compounds of present invention were tested in rodents. This class of compound has favorable pharmacokinetics at the oral dose of 5 mg/kg. The bioavailability is about 60-70%.

Sequence of r rat cathepsin B (P00787 80-333): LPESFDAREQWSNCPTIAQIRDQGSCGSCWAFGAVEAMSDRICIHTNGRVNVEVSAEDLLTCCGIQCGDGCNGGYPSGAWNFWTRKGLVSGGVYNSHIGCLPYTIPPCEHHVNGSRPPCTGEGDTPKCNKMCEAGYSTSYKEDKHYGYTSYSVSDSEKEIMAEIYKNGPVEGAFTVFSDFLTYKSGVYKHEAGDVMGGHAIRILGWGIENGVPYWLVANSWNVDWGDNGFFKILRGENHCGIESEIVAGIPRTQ
Sequence of r rat cathepsin L (P07154 114-334): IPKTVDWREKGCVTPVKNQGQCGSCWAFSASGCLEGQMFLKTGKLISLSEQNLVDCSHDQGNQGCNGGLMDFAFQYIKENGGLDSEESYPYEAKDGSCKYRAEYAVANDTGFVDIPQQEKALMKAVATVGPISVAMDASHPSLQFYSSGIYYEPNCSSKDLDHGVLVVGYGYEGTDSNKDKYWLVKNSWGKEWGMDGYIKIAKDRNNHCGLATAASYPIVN

As a reminder, the IC50 is the concentration at which inhibition is half-maximal. In the case of `CC(C)C[C@H](NC(=O)OCc1ccccc1)C(=O)NC1=CNC(c2ccccc2)NC1=O` (stereo partly drawn) [Example 1, 5-[2-(Benzyloxycarbonyl)amino-2-isobutyl]acetamido-2-phenyl-2,3-dihydopyrimidine-6-(1H)one], the IC50 in data set [1] stood at 340 nM; in data set [2] it was 4010 nM; in data set [3] it was 460 nM; in data set [4], 460 nM.

Take `CC(C)C[C@H](NC(=O)OCc1ccccc1)C(=O)NC1=CNC(c2ccccc2F)NC1=O` (stereo partly drawn) [Example 2, 5-[2-(Benzyloxycarbonyl)amino-2-isobutyl]acetamido-2-(2-fluorophenyl)-2,3-dihydopyrimidine-6-(1H)one]: the IC50 in data set [1] is 57 nM; in data set [2], 8380 nM; in data set [3], 920 nM; in data set [4], 290 nM.

As usually defined, the AUC is the area under the concentration-time curve, a measure of exposure. Usually Cmax stands for the maximum level reached in the sampled fluid or tissue. One may read the half-life as the time in which the quantity being followed falls by half. In turn, `CC(C)C[C@H](NC(=O)OCc1ccccc1)C(=O)NC1=CNC2(CCCC2)NC1=O` [Example 6, 5-[2-(Benzyloxycarbonyl)amino-2-isobutyl]acetamido-2,2-spirocyclopentyl-2,3-dihydopyrimidine-6-(1H)one] gave an IC50 in data set [1] of 100 nM. Moreover, the IC50 in data set [2] came to 3160 nM. For the same molecule, it took 1790 nM to reach half-maximal inhibition in data set [3] (IC50). The same molecule returned a concentration for half-maximal inhibition (IC50) in data set [4] of 480 nM. In addition, in data set [5], the AUC was 2730 ng·h/mL, the peak level (Cmax) was 3830 ± 3090 ng/mL, the half-life is 1.63 ± 0.48 h and the Vd/F was found to be 4.49 ± 1.9 L/kg. Besides, in data set [5], the Cl/F came to 0.617 ± 0.08.

For `CC(C)C[C@H](NC(=O)OCc1ccccc1)C(=O)NC1=CNC(C(C)(C)C)NC1=O` (stereo partly drawn) [Example 8, 5-[2-(Benzyloxycarbonyl)-amino-2-isobutyl]acetamido-2-tert-butyl-2,3-dihydopyrimidine-6-(1H)one], the IC50 in data set [1] is 74 nM; in data set [2], 4560 nM; in data set [3], 480 nM; in data set [4] it was 480 nM.

With `CC(C)C[C@H](NC(=O)OCc1ccccc1)C(=O)NC1=CNC(c2ccncc2)NC1=O` (stereo partly drawn) [Example 9, 5-[2-(Benzyloxycarbonyl)-amino-2-isobutyl]acetamido-2-(pyridin-4-yl)-2,3-dihydopyrimidine-6-(1H)one], the IC50 in data set [1] was found to be 18 nM; in data set [2], 2290 nM; in data set [3], 460 nM; in data set [4], 55 nM.

On to `CC(C)C[C@H](NC(=O)OCc1ccccc1)C(=O)NC1=CNC(CC(C)(C)C)NC1=O` (stereo partly drawn) [Example 10, 5-[2-(Benzyloxycarbonyl)-amino-2-isobutyl]acetamido-2-tert-butylmethyl-2,3-dihydopyrimidine-6-(1H)one], for which the IC50 in data set [1] stood at 250 nM; in data set [2], 9530 nM; in data set [3], 2320 nM; in data set [4] it was 2320 nM.

On to `CC(C)C[C@H](NC(=O)OCc1ccccc1)C(=O)Nc1c[nH]c(=O)[nH]c1=O` [Example 14, 5-[2-(Benzyloxycarbonyl)-amino-2-isobutyl]acetamido Pyrimidin-2,6-dione], for which the half-inhibitory concentration (IC50) in data set [1], in data set [2], in data set [3] and in data set [4] was > 50000 nM throughout.

In the case of `CC(C)C[C@H](NC(=O)CCc1ccccc1)C(=O)NC1=CNC2(CCCC2)NC1=O` [Example 17, 5-[2-(3-Phenylpropionyl)-amino-2-isobutyl]acetamido-2,2-spirocyclopentyl-2,3-dihydopyrimidine-6-(1H)one], the IC50 in data set [1] is 12100 nM; in data set [2] it was > 50000 nM; in data set [3], > 50000 nM; in data set [4], 8490 nM.

`CC(C)C[C@H](NC(=O)CCc1ccccc1)C(=O)NC1=CNC2(CCCCCC2)NC1=O` [Example 19, 5-[2-(3-Phenylpropionoyl)-amino-2-isobutyl]acetamido-2,2-spirocycloheptyl-2,3-dihydopyrimidine-6-(1H)one]: the IC50 in data set [1] stood at 91 nM; in data set [2], 5220 nM; in data set [3], 450 nM; in data set [4] it was 68 nM.

For the molecule `CC(C)C[C@H](NC(=O)OCc1ccccc1)C(=O)NC1=CNC(c2ccco2)NC1=O` (stereo partly drawn) [Example 20, 5-[2-(Benzyloxycarbonyl)amino-2-isobutyl]acetamido-2-(furan-2-yl)-2,3-dihydopyrimidine-6-(1H)one], the IC50 was found to be 45 nM in data set [1], 2350 nM in data set [2], 1500 nM in data set [3] and 94 nM in data set [4].

In data set [1], `CC(C)C[C@H](NC(=O)c1cc2ccccc2s1)C(=O)NC1=CNC(c2ccccc2F)NC1=O` (stereo partly drawn) [Example 21, 5-[2-(Benzothiophene-2-yl)amino-2-isobutyl]acetamido-2-(2-fluorophenyl)-2,3-dihydopyrimidine-6-(1H)one] gave a 50% inhibitory concentration (IC50) of 14 nM. This molecule came in with a 50% inhibitory concentration (IC50) in data set [2] of 420 nM. The molecule also registered an IC50 in data set [3] of 170 nM. This molecule registered a half-maximal inhibitory concentration (IC50) in data set [4] of 37 nM. For the same molecule, in data set [5], the area under the curve (AUC) is 853 ng·h/mL, the concentration peaked (Cmax) at 2610 ± 1840 ng/mL, the half-life is 0.54 ± 0.39 h and the Vd/F is 4.49 ± 3.03 L/kg. Moreover, the Cl/F in data set [5] is 2.09 ± 0.72.
